According to US20260027066A1, “NANOSCALE MATRIMERES” (THE BOARD OF TRUSTEES OF THE UNIVERSITY OF ILLINOIS, priority 2022, published 2026):

Legend:
[1] = system: FN^+ matrimeres secreted from MSCs; assay: Effects of pharmacological modulators on FN+ matrimere secretion from MSCs; format: cell-based, mouse; details: 24 hours in culture with drug vs DMSO control
Method: FIGS. 6A-6C show the effects of pharmacological modulators on FN^+ matrimere secretion. (FIG. 6A) Overview of the potential biogenesis pathway for FN^+ matrimeres, known regulators, and their pharmacological modulators. (FIG. 6B) Total number of nanostructures per MSC after 24 hours in culture with drugs or DMSO control. (FIG. 6C) Percent of FN^+ particles in MSC-secreted nanostructures. (FIG. 6D) Total number of FN^+ particles per cell. *p<0.05. n=3 experiments. p-values from one-way ANOVA followed by Tukey's post-test. All data are shown as mean±s.d. BMS-P5 (CAS No. 1550371-22-6); Bafilomycin-A1 (BafA1, CAS No. 88899-55-2); curcumin analog C1 (CA-C1, CAS No. 39777-61-2); ML-SA5 (CAS No. 2418670-70-7).
For excess DNA to be released from the nucleus, arginine in histone undergoes modification from positive to neutral charge via citrullination, which is mediated by peptidylarginine deiminase (PAD) (FIG. 6A). […] Most cells (>90%) remained viable after drug treatment. Thus, autophagy and lysosome are potential mediators of FN^+ matrimere biogenesis.

[2] = system: human umbilical vein endothelial cell (HUVEC) monolayer; assay: Transendothelial electrical resistance (TEER) assay of endothelial monolayer after LPS treatment; format: cell-based; details: cilengitide 200 nM
Method: (FIG. 3A) TEER kinetics of the human umbilical vein endothelial cell (HUVEC) monolayer showing the rescue of LPS (1 μM)—compromised TEER by the CD63-depleted fraction of MSC-secreted nanostructures. (FIG. 3B) Changes in TEER from 6.5 hours to 24 hours after washing out LPS followed by treatment. ****p<0.0001. n=3 experiments. p-values were derived from one-way ANOVA followed by Dunnett's T3 post-test. All data are shown as mean±s.d.
FIG. 8A-8B show the effects of reconstituted FN-DNA matrimeres on the recovery of TEER after 6 hours LPS (1 μM) treatment in vitro. (FIG. 8A) TEER kinetics. (FIG. 8B) Percentage of TEER recovery. n=3 experiments.
The effect of depleting different mouse MSC-secreted nanostructure subpopulations on their ability to reverse hyperpermeability of the endothelial cell monolayer after LPS treatment in vitro was assessed by a transendothelial electrical resistance (TEER) assay. TEER was decreased with LPS over 6 hours, while TEER was only partially rescued after washing out LPS in 24 hours. […] Competitive inhibition of RGD-binding integrins by cilengitide (cyclic RGD, 200 nM) impaired the ability of CD63-depleted fraction to restore TEER (FIG. 3B). […]
It was subsequently determined whether in vitro reconstituted FN-DNA particles could restore permeability of the endothelial cell monolayer after LPS treatment. […]

SMILES	FN^+ matrimeres secreted from MSCs [1]	FN^+ particle number per cell [1]	also measured
COc1cc(C(=O)N2C[C@H](N)CC[C@@H]2C)cc2nc(-c3cc4cccnc4n3CC3CC3)n(C)c12 [BMS-P5]	decreased		
CN(C)S(=O)(=O)c1ccc(S(=O)(=O)Nc2cccc(Cl)c2N2CCCCC2)cc1 [ML-SA5, N′-[3-Chloro-2-(1-piperidinyl)phenyl]-N,N-dimethyl-1,4-benzenedisulfonamide]		significantly increased	
CO/C1=C\C(C)=C\[C@@H](C)[C@@H](O)[C@@H](C)C/C(C)=C/C=C/[C@H](OC)[C@@H]([C@@H](C)[C@@H](O)[C@H](C)[C@@]2(O)C[C@@H](O)[C@H](C)[C@@H](C(C)C)O2)OC1=O [bafilomycin-A1]	decreased		
CC(C)[C@H]1C(=O)N[C@@H](CCCN=C(N)N)C(=O)NCC(=O)N[C@@H](CC(=O)O)C(=O)N[C@H](Cc2ccccc2)C(=O)N1C [cilengitide]			effect on ability of reconstituted FN-DNA particles to restore TEER [2]: partially impaired; effect on ability of CD63-depleted fraction to restore TEER ([2]; competitive inhibition of RGD-binding integrins): impaired
COc1ccccc1/C=C/C(=O)/C=C/c1ccccc1OC [curcumin analog C1, (1E,4E)-1,5-bis(2-methoxyphenyl)-1,4-pentadien-3-one]		significantly increased	
